Results on 15 molecules are retold here after patent publication US20230167118A1, “DEGRADATION OF BRUTON'S TYROSINE KINASE (BTK) BY CONJUGATION OF BTK INIDBITORS WITH E3 LIGASE LIGAND AND METHODS OF USE” (BEIGENE, LTD., priority 2020, published 2023).

Bounds are passed on as bounds.

Assay [1] relates to HEK-293 cells. Description: HEK-293 Cytotoxicity Assay (CellTiter-Glo). The format is cell-based. As to conditions: Homo sapiens, HEK293, 72 h incubation, CellTiter-Glo luminescence. The method in brief: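 HEK-293 cells treated 72 h with 8 concentrations (4-fold dilutions, 0.2% DMSO final). Viability read by CellTiter-Glo luminescence; IC50 from four-parameter logistic fit of % inhibition.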

Assay [2] addresses T1, BTK (Homo sapiens, UniProt Q06187).
T1 construct: High control=Cell group with added DMSO and without compound, indicating microplate readings without BTK degradation; endogenous in cells; host or cells: TMD-8 cells
Kind of assay: Cell Degradation: BTK degradation in TMD-8 cells, HTRF assay. Format: cell-based. As to conditions: 6 h treatment, IC50 (DC50) of BTK degradation. In short, it runs like this: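 TMD-8 cells treated 6 h with 8-dose 6-fold dilutions in 0.2% DMSO, then lysed and BTK quantified by HTRF (665/620 nm). Degradation % normalised to high/low controls; DC50 from four-parameter fit, Dmax as maximal degradation.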

T1 sequence (Q06187 whole entry): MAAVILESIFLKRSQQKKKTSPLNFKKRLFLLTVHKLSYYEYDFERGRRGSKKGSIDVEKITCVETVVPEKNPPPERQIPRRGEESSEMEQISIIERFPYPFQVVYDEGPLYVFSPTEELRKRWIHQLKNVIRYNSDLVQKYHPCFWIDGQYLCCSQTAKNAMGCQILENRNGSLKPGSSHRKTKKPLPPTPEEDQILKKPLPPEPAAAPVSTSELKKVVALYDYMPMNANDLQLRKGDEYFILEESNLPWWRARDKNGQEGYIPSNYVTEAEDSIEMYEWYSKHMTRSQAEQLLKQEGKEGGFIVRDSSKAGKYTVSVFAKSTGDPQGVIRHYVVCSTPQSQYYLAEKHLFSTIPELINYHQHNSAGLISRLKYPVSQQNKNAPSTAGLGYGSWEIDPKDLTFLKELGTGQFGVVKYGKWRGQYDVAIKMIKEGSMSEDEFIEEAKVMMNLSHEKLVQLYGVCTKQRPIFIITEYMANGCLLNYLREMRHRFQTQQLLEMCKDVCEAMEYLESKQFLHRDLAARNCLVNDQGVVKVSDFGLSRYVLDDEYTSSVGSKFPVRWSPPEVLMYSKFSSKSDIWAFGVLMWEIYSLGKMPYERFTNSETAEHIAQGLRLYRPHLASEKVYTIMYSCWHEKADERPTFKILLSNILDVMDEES

For orientation: IC50 means the midpoint of a concentration-inhibition curve. Usually DC50 stands for the concentration giving 50% degradation. Read a high DC50 as a less potent degrader. Molecule `Cc1cc(-c2ncnc3[nH]c(-c4c(C)nn(C5CN(CC6CCN(c7ccc(N8CCC(=O)NC8=O)cc7)CC6)C5)c4C)cc23)ccc1[C@@H](C)NC(=O)c1nc(C(C)(C)C)no1` [Example 169, (R)-3-(tert-butyl)-N-(1-(4-(6-(1-(1-((1-(4-(2,4-dioxotetrahydropyrimidin-1(2H)-yl)phenyl)piperidin-4-yl)methyl)azetidin-3-yl)-3,5-dimethyl-1H-pyrazol-4-yl)-7H-pyrrolo[2,3-d]pyrimidin-4-yl)-2-methylphenyl)ethyl)-1,2,4-oxadiazole-5-carboxamide] had an IC50 in assay [1] greater than 10000 nM. For the same molecule, the DC50 in assay [2] came out at 0.52 nM.
Consider `C[C@@H](NC(=O)c1nc(C(C)(C)C)no1)c1ccc(-c2ncnc3[nH]c(-c4ccc(N5CCN(CC6CCN(c7ccc(N8CCC(=O)NC8=O)cc7)CC6)CC5)cn4)cc23)cc1CO` [Example 170, (R)-3-(tert-butyl)-N-(1-(4-(6-(5-(4-((1-(4-(2,4-dioxotetrahydropyrimidin-1(2H)-yl)phenyl)piperidin-4-yl)methyl)piperazin-1-yl)pyridin-2-yl)-7H-pyrrolo[2,3-d]pyrimidin-4-yl)-2-(hydroxymethyl)phenyl)ethyl)-1,2,4-oxadiazole-5-carboxamide], for which the IC50 in assay [1] is greater than 10000 nM. This molecule yielded a DC50 in assay [2] of 0.17 nM.
In the case of `C[C@@H](NC(=O)c1noc(C(C)(C)C)n1)c1cc(F)c(-c2ncnc3[nH]c(-c4ccc(N5CCN(CC6CCN(c7ccc(N8CCC(=O)NC8=O)cc7)CC6)CC5)cn4)cc23)cc1CO` [Example 171, (R)-5-(tert-butyl)-N-(1-(4-(6-(5-(4-((1-(4-(2,4-dioxotetrahydropyrimidin-1(2H)-yl)phenyl)piperidin-4-yl)methyl)piperazin-1-yl)pyridin-2-yl)-7H-pyrrolo[2,3-d]pyrimidin-4-yl)-5-fluoro-2-(hydroxymethyl)phenyl)ethyl)-1,2,4-oxadiazole-3-carboxamide], the IC50 in assay [1] was greater than 10000 nM. In assay [2], this molecule registered a DC50 of 0.25 nM.
In assay [1], `Cc1cc(-c2ncnc3[nH]c(-c4ccc(C5(O)CN(CC6CCN(c7ccc(N8CCC(=O)NC8=O)cc7)CC6)C5)cn4)cc23)ccc1[C@@H](C)NC(=O)c1nc(C(C)(C)C)no1` [Example 172, (R)-3-(tert-butyl)-N-(1-(4-(6-(5-(1-((1-(4-(2,4-dioxotetrahydropyrimidin-1(2H)-yl)phenyl)piperidin-4-yl)methyl)-3-hydroxyazetidin-3-yl)pyridin-2-yl)-7H-pyrrolo[2,3-d]pyrimidin-4-yl)-2-methylphenyl)ethyl)-1,2,4-oxadiazole-5-carboxamide] registered an IC50 greater than 10000 nM. In assay [2], the DC50 is 0.24 nM.
As for `Cc1cc(-c2ncnc3[nH]c(-c4ccc(C5(F)CN(CC6CCN(c7ccc(N8CCC(=O)NC8=O)cc7)CC6)C5)cn4)cc23)ccc1[C@@H](C)NC(=O)c1nc(C(C)(C)C)no1` [Example 173, (R)-3-(tert-butyl)-N-(1-(4-(6-(5-(1-((1-(4-(2,4-dioxotetrahydropyrimidin-1(2H)-yl)phenyl)piperidin-4-yl)methyl)-3-fluoroazetidin-3-yl)pyridin-2-yl)-7H-pyrrolo[2,3-d]pyrimidin-4-yl)-2-methylphenyl)ethyl)-1,2,4-oxadiazole-5-carboxamide], in assay [1], the IC50 was greater than 10000 nM. In addition, half-maximal degradation in assay [2] (DC50) was put at 0.98 nM.
Regarding `Cc1cc(-c2ncnc3[nH]c(-c4nn(C)c(C5=CCN(CC6CCN(c7ccc(N8CCC(=O)NC8=O)cc7)CC6)CC5)c4C)cc23)ccc1[C@@H](C)NC(=O)c1nc(C(C)(C)C)no1` [Example 174, (R)-3-(tert-butyl)-N-(1-(4-(6-(5-(1-((1-(4-(2,4-dioxotetrahydropyrimidin-1(2H)-yl)phenyl)piperidin-4-yl)methyl)-1,2,3,6-tetrahydropyridin-4-yl)-1,4-dimethyl-1H-pyrazol-3-yl)-7H-pyrrolo[2,3-d]pyrimidin-4-yl)-2-methylphenyl)ethyl)-1,2,4-oxadiazole-5-carboxamide], in assay [1], the IC50 was greater than 10000 nM. Also, in assay [2], the DC50 amounted to 1.51 nM.
For the molecule `Cc1cc(-c2ncnc3[nH]c(-c4c(C)nn(C5CCN(CCNCC6CCN(c7ccc(N8CCC(=O)NC8=O)cc7)CC6)CC5)c4C)cc23)ccc1[C@@H](C)NC(=O)c1nc(C(C)(C)C)no1` [Example 175, (R)-3-(tert-butyl)-N-(1-(4-(6-(1-(1-(2-(((1-(4-(2,4-dioxotetrahydropyrimidin-1(2H)-yl)phenyl)piperidin-4-yl)methyl)amino)ethyl)piperidin-4-yl)-3,5-dimethyl-1H-pyrazol-4-yl)-7H-pyrrolo[2,3-d]pyrimidin-4-yl)-2-methylphenyl)ethyl)-1,2,4-oxadiazole-5-carboxamide], in assay [1], it took 7360 nM to reach half-maximal inhibition (IC50). In assay [2], this molecule showed a DC50 of 1.97 nM.
`Cc1cc(-c2ncnc3[nH]c(-c4ccc(C5CCN(CC6CCN(c7ccc(N8CCC(=O)NC8=O)cc7)CC6)C5)cn4)cc23)ccc1[C@@H](C)NC(=O)c1nc(C(C)(C)C)no1` (stereo partly drawn) [Example 176, 3-(tert-butyl)-N-((1R)-1-(4-(6-(5-(1-((1-(4-(2,4-dioxotetrahydropyrimidin-1(2H)-yl)phenyl)piperidin-4-yl)methyl)pyrrolidin-3-yl)pyridin-2-yl)-7H-pyrrolo[2,3-d]pyrimidin-4-yl)-2-methylphenyl)ethyl)-1,2,4-oxadiazole-5-carboxamide]: the 50% inhibitory concentration (IC50) in assay [1] was greater than 10000 nM. Also, the DC50 in assay [2] turned out to be 1.1 nM.
With `Cc1cc(-c2ncnc3[nH]c(-c4ccc(C5(F)CCN(CC6CCN(c7ccc(N8CCC(=O)NC8=O)cc7)CC6)C5)cn4)cc23)ccc1[C@@H](C)NC(=O)c1nc(C(C)(C)C)no1` (stereo partly drawn) [Example 177, 3-(tert-butyl)-N-((1R)-1-(4-(6-(5-(1-((1-(4-(2,4-dioxotetrahydropyrimidin-1(2H)-yl)phenyl)piperidin-4-yl)methyl)-3-fluoropyrrolidin-3-yl)pyridin-2-yl)-7H-pyrrolo[2,3-d]pyrimidin-4-yl)-2-methylphenyl)ethyl)-1,2,4-oxadiazole-5-carboxamide], the IC50 in assay [1] was greater than 10000 nM. The same molecule yielded a DC50 in assay [2] of 0.99 nM.
As to `C[C@@H](NC(=O)c1nc(C(C)(C)C)no1)c1cc(F)c(-c2ncnc3[nH]c(-c4ccc(N5CCN(CC6CCN(c7ccc(N8CCC(=O)NC8=O)cc7)CC6)CC5)cn4)cc23)cc1CO` [Example 178, (R)-3-(tert-butyl)-N-(1-(4-(6-(5-(4-((1-(4-(2,4-dioxotetrahydropyrimidin-1(2H)-yl)phenyl)piperidin-4-yl)methyl)piperazin-1-yl)pyridin-2-yl)-7H-pyrrolo[2,3-d]pyrimidin-4-yl)-5-fluoro-2-(hydroxymethyl)phenyl)ethyl)-1,2,4-oxadiazole-5-carboxamide], the IC50 in assay [1] was greater than 10000 nM. The molecule also yielded a DC50 in assay [2] of 0.44 nM.
In the same order, the values of `Cc1cc(-c2ncnc3[nH]c(-c4ccc(C5CN(CC6CCN(c7ccc(N8CCC(=O)NC8=O)cc7)CC6)C5)nc4)cc23)ccc1[C@@H](C)NC(=O)c1nc(C(C)(C)C)no1` [Example 179, (R)-3-(tert-butyl)-N-(1-(4-(6-(6-(1-((1-(4-(2,4-dioxotetrahydropyrimidin-1(2H)-yl)phenyl)piperidin-4-yl)methyl)azetidin-3-yl)pyridin-3-yl)-7H-pyrrolo[2,3-d]pyrimidin-4-yl)-2-methylphenyl)ethyl)-1,2,4-oxadiazole-5-carboxamide] are 6040 nM and 0.74 nM.
`Cc1cc(-c2ncnc3[nH]c(-c4ccc(C5(O)CCN(CC6CCN(c7ccc(N8CCC(=O)NC8=O)cc7)CC6)C5)cn4)cc23)ccc1[C@@H](C)NC(=O)c1nc(C(C)(C)C)no1` (stereo partly drawn) [Example 180, 3-(tert-butyl)-N-((1R)-1-(4-(6-(5-(1-((1-(4-(2,4-dioxotetrahydropyrimidin-1(2H)-yl)phenyl)piperidin-4-yl)methyl)-3-hydroxypyrrolidin-3-yl)pyridin-2-yl)-7H-pyrrolo[2,3-d]pyrimidin-4-yl)-2-methylphenyl)ethyl)-1,2,4-oxadiazole-5-carboxamide] came in with a half-inhibitory concentration (IC50) in assay [1] of 985 nM. Moreover, half-maximal degradation in assay [2] (DC50) was put at 0.52 nM.
Regarding `Cc1cc(-c2ncnc3[nH]c(-c4ccc(N5CCN(Cc6ccc(C7CCC(=O)NC7=O)c(F)c6)CC5)cn4)cc23)ccc1[C@@H](C)NC(=O)c1nc(C(C)(C)C)no1` (stereo partly drawn) [Example 181, 3-(tert-butyl)-N-((1R)-1-(4-(6-(5-(4-(4-(2,6-dioxopiperidin-3-yl)-3-fluorobenzyl)piperazin-1-yl)pyridin-2-yl)-7H-pyrrolo[2,3-d]pyrimidin-4-yl)-2-methylphenyl)ethyl)-1,2,4-oxadiazole-5-carboxamide], in assay [1], the IC50 is greater than 10000 nM. Also, it took 1.58 nM to reach half-maximal degradation in assay [2] (DC50).
In the same order, the values of `Cc1cc(-c2ncnc3[nH]c(-c4ccc(C5CC6CCC(C5)N6CC5CCN(c6ccc(N7CCC(=O)NC7=O)cn6)CC5)cc4)cc23)ccc1[C@@H](C)NC(=O)c1nc(C(C)(C)C)no1` (stereo partly drawn) [Example 182, 3-(tert-butyl)-N-((1R)-1-(4-(6-(4-(8-((1-(5-(2,4-dioxotetrahydropyrimidin-1(2H)-yl)pyridin-2-yl)piperidin-4-yl)methyl)-8-azabicyclo[3.2.1]octan-3-yl)phenyl)-7H-pyrrolo[2,3-d]pyrimidin-4-yl)-2-methylphenyl)ethyl)-1,2,4-oxadiazole-5-carboxamide] are 2220 nM and 1.34 nM.
With `Cc1cc(-c2ncnc3[nH]c(-c4ccc(C5CC6CCC(C5)N6CC5CCN(c6ccc(N7CCC(=O)NC7=O)cc6)CC5)cc4)cc23)ccc1[C@@H](C)NC(=O)c1nc(C(C)(C)C)no1` (stereo partly drawn) [Example 183, 3-(tert-butyl)-N-((1R)-1-(4-(6-(4-(8-((1-(4-(2,4-dioxotetrahydropyrimidin-1(2H)-yl)phenyl)piperidin-4-yl)methyl)-8-azabicyclo[3.2.1]octan-3-yl)phenyl)-7H-pyrrolo[2,3-d]pyrimidin-4-yl)-2-methylphenyl)ethyl)-1,2,4-oxadiazole-5-carboxamide], the IC50 in assay [1] worked out at 1040 nM. Besides, the DC50 in assay [2] amounted to 1.4 nM.
